According to patent publication EP4806891A1 (Kangbaida (Sichuan) Biotechnology Co., Ltd., priority 2023, dated 2025):

The molecules below were run against T1, HEK-Blue-hTLR9 cells (Homo sapiens, UniProt Q9NR96) (assay: HEK-Blue-hTLR9 cell inhibition assay). Details: ODN2006 1 µM, 16 h, OD 620 nm, read-out: TLR9 IC50.
T1 construct: expressed in transfected cells; host or cells: HEK-Blue-hTLR9 cells (HEK293-derived reporter line)
T1 sequence (Q9NR96 26-1032): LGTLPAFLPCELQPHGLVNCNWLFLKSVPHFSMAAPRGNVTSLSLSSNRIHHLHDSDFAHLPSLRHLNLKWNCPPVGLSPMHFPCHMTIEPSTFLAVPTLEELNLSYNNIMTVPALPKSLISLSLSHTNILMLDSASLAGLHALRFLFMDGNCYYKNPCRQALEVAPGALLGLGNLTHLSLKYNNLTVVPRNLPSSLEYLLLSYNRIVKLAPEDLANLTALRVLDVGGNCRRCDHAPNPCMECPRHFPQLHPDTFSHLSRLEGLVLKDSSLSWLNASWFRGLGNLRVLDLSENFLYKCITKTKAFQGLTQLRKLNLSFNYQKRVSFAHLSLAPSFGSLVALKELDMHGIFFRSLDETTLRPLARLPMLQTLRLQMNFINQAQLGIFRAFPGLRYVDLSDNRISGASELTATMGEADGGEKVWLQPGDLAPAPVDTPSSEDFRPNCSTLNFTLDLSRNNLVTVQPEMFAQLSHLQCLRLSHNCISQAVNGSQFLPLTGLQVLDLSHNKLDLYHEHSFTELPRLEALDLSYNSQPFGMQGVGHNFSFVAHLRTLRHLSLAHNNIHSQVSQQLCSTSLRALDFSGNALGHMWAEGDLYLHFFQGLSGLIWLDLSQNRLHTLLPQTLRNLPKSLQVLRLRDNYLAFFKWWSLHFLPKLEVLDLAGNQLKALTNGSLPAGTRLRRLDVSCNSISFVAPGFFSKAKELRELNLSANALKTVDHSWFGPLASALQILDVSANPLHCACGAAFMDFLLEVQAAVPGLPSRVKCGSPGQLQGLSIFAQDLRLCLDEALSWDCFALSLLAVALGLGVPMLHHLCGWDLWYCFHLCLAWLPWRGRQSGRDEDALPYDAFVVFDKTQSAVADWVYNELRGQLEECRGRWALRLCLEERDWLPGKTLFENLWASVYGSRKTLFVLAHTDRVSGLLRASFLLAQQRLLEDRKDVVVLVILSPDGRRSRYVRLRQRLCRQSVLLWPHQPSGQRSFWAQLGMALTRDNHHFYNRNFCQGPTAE
Type: cell-based
Method in brief: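 Cells were pre-incubated 4 h, then co-treated 16 h at 37 °C with compound (10 doses, 0.5–10000 nM final) plus R848 (0.8 µM for TLR7, 3 µM for TLR8) or ODN2006 (1 µM, TLR9). Reporter OD620 gave inhibition relative to DMSO blank and agonist-only controls; IC50 came from curve fitting.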

IC50 | Structure (SMILES)
> 1000 nM | CN1CCC(Cc2nnc([C@]34CN(c5ccc(C#N)c6ncccc56)C[C@@]3(C(F)(F)F)C4)o2)CC1 [Compound 37, 5-((1S,5R)-1-(5-((1-methylpiperidin-4-yl)methyl)-1,3,4-oxadiazol-2-yl)-5-(trifluoromethyl)-3-azabicyclo[3.1.0]hexan-3-yl)quinoline-8-carbonitrile]
> 10000 nM | NC(=O)CN1CCC(c2nnc([C@]34CN(c5ccc(C(F)(F)F)c6ncccc56)C[C@@]3(C(F)(F)F)C4)o2)CC1 [Compound 77, 2-(4-(5-((1S,5R)-5-(trifluoromethyl)-3-(8-(trifluoromethyl)quinolin-5-yl)-3-azabicyclo[3.1.0]hexan-1-yl)-1,3,4-oxadiazol-2-yl)piperidin-1-yl)acetamide]
> 10000 nM | N#Cc1ccc(N2C[C@]3(c4nnc(CN5CCCC5)o4)C[C@]3(C(F)(F)F)C2)c2cccnc12 [Compound 41, 5-((1S,5R)-1-(5-(Pyrrolidin-1-ylmethyl)-1,3,4-oxadiazol-2-yl)-5-(trifluoromethyl)-3-azabicyclo[3.1.0]hexan-3-yl)quinoline-8-carbonitrile]
> 10000 nM | CN1CCC(Oc2nnc([C@]34CN(c5ccc(OC(F)(F)F)c6ncccc56)C[C@@]3(C(F)(F)F)C4)o2)CC1 [Compound 93, 2-((1-methylpiperidin-4-yl)oxy)-5-((1S,5R)-5-(trifluoromethyl)-3-(8-(trifluoromethoxy)quinolin-5-yl)-3-azabicyclo[3.1.0]hexan-1-yl)-1,3,4-oxadiazole]
> 1000 nM | CN1CC2CC1CC2c1nnc([C@]23CN(c4ccc(C#N)c5ncccc45)C[C@@]2(C(F)(F)F)C3)o1 (stereo partly drawn) [Compound 14, 5-((1S,5R)-1-(5-(2-methyl-2-azabicyclo[2.2.1]heptan-5-yl)-1,3,4-oxadiazol-2-yl)-5-(trifluoromethyl)-3-azabicyclo[3.1.0]hexan-3-yl)quinoline-8-carbonitrile]
> 1000 nM | CC1(C)CC(Cc2nnc([C@]34CN(c5ccc(C#N)c6ncccc56)C[C@@]3(C(F)(F)F)C4)o2)CC(C)(C)N1 [Compound 26, 5-((1S,5R)-1-(5-((2,2,6,6-tetramethylpiperidin-4-yl)methyl)-1,3,4-oxadiazol-2-yl)-5-(trifluoromethyl)-3-azabicyclo[3.1.0]hexan-3-yl)quinoline-8-carbonitrile]
> 10000 nM | N#Cc1ccc(N2C[C@]3(c4nnc(CN5CCOCC5)o4)C[C@]3(C(F)(F)F)C2)c2cccnc12 [Compound 40, 5-((1S,5R)-1-(5-(morpholinomethyl)-1,3,4-oxadiazol-2-yl)-5-(trifluoromethyl)-3-azabicyclo[3.1.0]hexan-3-yl)quinoline-8-carbonitrile]
> 1000 nM | CN1CCC(c2nnc([C@]34CN(c5ccc(C#N)c6ncccc56)C[C@@]3(C(F)(F)F)C4)o2)C(F)C1 (stereo partly drawn) [Compound 50, 5-((1S,5R)-1-(5-(3-fluoro-1-methylpiperidin-4-yl)-1,3,4-oxadiazol-2-yl)-5-(trifluoromethyl)-3-azabicyclo[3.1.0]hexan-3-yl)quinoline-8-carbonitrile]
> 1000 nM | NC12CCC(c3nnc([C@]45CN(c6ccc(C(F)(F)F)c7ncccc67)C[C@@]4(C(F)(F)F)C5)o3)(CC1)CC2 [Compound 81, 4-(5-((1S,5R)-5-(trifluoromethyl)-3-(8-(trifluoromethyl)quinolin-5-yl)-3-azabicyclo[3.1.0]hexan-1-yl)-1,3,4-oxadiazol-2-yl)bicyclo[2.2.2]octan-1-amine]
> 10000 nM | N#Cc1ccc(N2C[C@]3(c4nnc(N5CCOCC5)o4)C[C@]3(C(F)(F)F)C2)c2cccnc12 [Compound 27, 5-((1S,5R)-1-(5-morpholino-1,3,4-oxadiazol-2-yl)-5-(trifluoromethyl)-3-azabicyclo[3.1.0]hexan-3-yl)quinoline-8-carbonitrile]
> 1000 nM | CN1CCC(Oc2nnc([C@]34CN(c5ccc(C(F)(F)F)c6ncccc56)C[C@@]3(C(F)(F)F)C4)o2)CC1 [Compound 92, 2-((1-methylpiperidin-4-yl)oxy)-5-((1S,5R)-5-(trifluoromethyl)-3-(8-(trifluoromethyl)quinolin-5-yl)-3-azabicyclo[3.1.0]hexan-1-yl)-1,3,4-oxadiazole]
> 1000 nM | CN1CCC(c2nnc([C@]34CN(c5ccc(C(F)(F)F)n6nccc56)C[C@@]3(C(F)(F)F)C4)o2)CC1 [Compound 87, 2-(1-methylpiperidin-4-yl)-5-((1S,5R)-5-(trifluoromethyl)-3-(7-(trifluoromethyl)pyrazolo[1,5-a]pyridin-4-yl)-3-azabicyclo[3.1.0]hexan-1-yl)-1,3,4-oxadiazole]
> 10000 nM | Cn1c(CN2CCCC2)nnc1[C@]12CN(c3ccc(C#N)c4ncccc34)C[C@@]1(C(F)(F)F)C2 [Compound 44, 5-((1S,5R)-1-(4-methyl-5-(pyrrolidin-1-ylmethyl)-4H-1,2,4-triazol-3-yl)-5-(trifluoromethyl)-3-azabicyclo[3.1.0]hexan-3-yl)quinoline-8-carbonitrile]
> 1000 nM | FC(F)(F)c1ccc(N2C[C@]3(c4nnc(C5CCNCC5)o4)C[C@]3(C(F)(F)F)C2)c2cccnc12 [Compound 75, 2-(piperidin-4-yl)-5-((1S,5R)-5-(trifluoromethyl)-3-(8-(trifluoromethyl)quinolin-5-yl)-3-azabicyclo[3.1.0]hexan-1-yl)-1,3,4-oxadiazole]
> 1000 nM | CN1CCC(c2nnc([C@]34CN(c5ccc(C#N)n6ncc(Br)c56)C[C@@]3(C(F)(F)F)C4)o2)CC1 [Compound 83, 3-bromo-4-((1S,5R)-1-(5-(1-methylpiperidin-4-yl)-1,3,4-oxadiazol-2-yl)-5-(trifluoromethyl)-3-azabicyclo[3.1.0]hexan-3-yl)pyrazolo[1,5-a]pyridine-7-carbonitrile]
> 1000 nM | CN1CCC(n2cnc([C@]34CN(c5ccc(C#N)c6ncccc56)C[C@@]3(C(F)(F)F)C4)n2)CC1 [Compound 23, 5-((1S,5R)-1-(1-(1-methylpiperidin-4-yl)-1H-1,2,4-triazol-3-yl)-5-(trifluoromethyl)-3-azabicyclo[3.1.0]hexan-3-yl)quinoline-8-carbonitrile]
< 1000 nM | N#Cc1ccc(N2C[C@]3(c4nnc(C5(F)CCNCC5)o4)C[C@]3(C(F)(F)F)C2)c2cccnc12 [Compound 60, 5-((1S,5R)-1-(5-(4-fluoropiperidin-4-yl)-1,3,4-oxadiazol-2-yl)-5-(trifluoromethyl)-3-azabicyclo[3.1.0]hexan-3-yl)quinoline-8-carbonitrile]
> 1000 nM | CN1CCC(Nc2nnc([C@]34CN(c5ccc(C#N)c6ncccc56)C[C@@]3(C(F)(F)F)C4)o2)CC1 [Compound 6, 5-((1S,5R)-1-(5-((1-methylpiperidin-4-yl)amino)-1,3,4-oxadiazol-2-yl)-5-(trifluoromethyl)-3-azabicyclo[3.1.0]hexan-3-yl)quinoline-8-carbonitrile]
> 1000 nM | CN1CCC(c2nnc([C@]34CN(c5ccc(C#N)c6ncccc56)C[C@@]3(C(F)(F)F)C4)n2C)CC1 [Compound 5, 5-((1S,5R)-1-(4-methyl-5-(1-methylpiperidin-4-yl)-4H-1,2,4-triazol-3-yl)-5-(trifluoromethyl)-3-azabicyclo[3.1.0]hexan-3-yl)quinoline-8-carbonitrile]
> 10000 nM | CN1CCC(F)(c2nnc([C@]34CN(c5ccc(C#N)c6ncccc56)C[C@@]3(C(F)(F)F)C4)o2)C1 (stereo partly drawn) [Compound 47, 5-((1S,5R)-1-(5-(3-fluoro-1-methylpyrrolidin-3-yl)-1,3,4-oxadiazol-2-yl)-5-(trifluoromethyl)-3-azabicyclo[3.1.0]hexan-3-yl)quinoline-8-carbonitrile]

Structure (SMILES) | IC50
CN1[C@@H]2CC[C@H]1C[C@H](c1nnc([C@]34CN(c5ccc(C(F)(F)F)c6ncccc56)C[C@@]3(C(F)(F)F)C4)o1)C2 [Compound 79, 2-((1R,3S,5S)-8-methyl-8-azabicyclo[3.2.1]octan-3-yl)-5-((1S,5R)-5-(trifluoromethyl)-3-(8-(trifluoromethyl)quinolin-5-yl)-3-azabicyclo[3.1.0]hexan-1-yl)-1,3,4-oxadiazole] | > 1000 nM
